For 14 compounds, GI50 results are on record in patent publication US20240246948A1, “BENZAMIDE DERIVATIVE, METHOD FOR PREPARING SAME, AND PHARMACEUTICAL COMPOSITION FOR PREVENTION OR TREATMENT OF CANCER CONTAINING SAME AS ACTIVE INGREDIENT” (HK INNO.N CORPORATION, priority 2021, published 2024).

Assay [1] has as its target Ba/F3 EGFR L858R/T790M/C797S (LTC) (Homo sapiens, UniProt P00533, T790M/C797S/L858R, cells depend on it). As to the kind of experiment: Cell growth inhibitory ability in Ba/F3 cells overexpressing EGFR L858R/T790M/C797S (MTS, CellTiter 96 AQueous). Type of assay: cell-based. As to conditions: 72 hours, MTS absorbance at 490 nm, read-out: Ba/F3 EGFR triple mutant L858R/T790M/C797S, IC50. As for the experimental part:
(§1) In order to confirm that the compound represented by formula 1 provided in one aspect of the present invention acts as an allosteric inhibitor against WT and mutant of EGFR, the cell growth inhibitory effect was evaluated in BaF3 cells overexpressing WT and mutant of EGFR.
(§2) More specifically, the cell growth inhibitory ability of the compound of the present invention to the Ba/F3 cell line overexpressing WT and mutant of EGFR was evaluated using CellTiter 96 AQueous Non-Radioactive Cell Proliferation Assay system of Promega, as follows. AQueous Non-Radioactive Cell Proliferation Assay is a method of confirming cell growth inhibitory ability by measuring the degree of color development by reducing MTS (3-(4,5-Dimethylthiazol-2-yl)-5-(3-carboxymethoxyphenyl)-2-(4-sulfophenyl)-2H-tetrazolium) to Formazan by a reductase secreted by mitochondria present in living cells in a cell culture state. The Ba/F3 EGFR WT and Ba/F3 EGFR del19/T790M/C797S (DTC), Ba/F3 EGFR L858R (L), Ba/F3 EGFR L858R/T790M (LT), and Ba/F3 EGFR L858R/T790M/C797S (LTC) mutation cell lines used in the present invention were purchased from the laboratory of Professor Byung-cheol Cho, Yonsei University. All cell lines were cultured in RPMI supplemented with 10% FBS, 1% penicillin-streptomycin and 1 μg/ml of puromycine in a 5% CO2 incubator at 37° C.
(§3) The cell survival inhibitory effect of the compound according to each EGFR mutation was analyzed by the following analysis method.
(§4) BaF3 cells were distributed in a 96-well cell culture plate at the density of 2000˜10000 cells/100 μL/well, and cultured for 24 hours. Thereafter, the concentration of the compound represented by formula 1 provided in one aspect of the present invention was prepared to double the final concentrations of 0.1 nM, 1 nM, 10 nM, 100 nM, 1000 nM and 10000 nM, and the compound was treated to the plate (100 μL/well). The plate was reacted in an incubator at 37° C. for 72 hours. Then, MTS was treated to the plate (20 μL/well) and the plate was incubated at 37° C. for 2 to 4 hours. Finally, after measuring the absorbance at 490 nm using a microplate reader, the relative value compared to 0 nM (% Control) was obtained to confirm the cell growth inhibitory ability of the compound. The measured values were analyzed using Prism program (version 8.0, Graphpad Software, Inc.), and the IC50 value (Inhibition concentration 50), an indicator of the cell growth inhibitory ability of the compound, was calculated.

Assay [2] addresses Ba/F3 EGFR L858R/T790M (LT) (Homo sapiens, UniProt P00533, T790M/L858R, cells depend on it). Kind of assay: Cell growth inhibitory ability in Ba/F3 cells overexpressing EGFR L858R/T790M (MTS, CellTiter 96 AQueous). Type of assay: cell-based. As to conditions: 72 hours, MTS absorbance at 490 nm, read-out: Ba/F3 EGFR double mutant L858R/T790M, IC50. As for the experimental part: as §1, §2, §3, §4

For the compound `Cc1cc(C(=O)NC(c2cc3ccccc3[nH]2)c2cc(F)ccc2O)cc(-c2ccc(N3CCC(N)CC3)cc2)c1` (stereo not shown) [Example 32, 4′-(4-aminopiperidine-1-yl)-N-((5-fluoro-2-hydroxyphenyl)(1H-indole-2-yl)methyl)-5-methyl-[1,1′-biphenyl]-3-carboxamide], the GI50 in assay [1] and in assay [2] was less than 30 nM throughout.
Regarding `Cc1cc(C(=O)N[C@@H](c2cc3ccccc3[nH]2)c2cc(F)ccc2O)cc(-c2cc(C)c(N3CCC(N)CC3)cn2)c1` [Example 33, (R)-3-(5-(4-aminopiperidine-1-yl)-4-methylpyridine-2-yl)-N-((5-fluoro-2-hydroxyphenyl)(1H-indole-2-yl)methyl)-5-methylbenzamide], the GI50 in assay [1] and in assay [2] was less than 30 nM throughout.
As to `Cc1cc(C(=O)N[C@@H](c2cc3ccccc3[nH]2)c2cc(F)ccc2O)cc(-c2cnc(N3CCC(N)CC3)nc2C)c1` [Example 34, (R)-3-(2-(4-aminopiperidine-1-yl)-4-methylpyrimidine-5-yl)-N-((5-fluoro-2-hydroxyphenyl)(1H-indole-2-yl)methyl)-5-methylbenzamide], the results for the GI50 in assay [1] and in assay [2] were 30 to 200 nM and less than 30 nM, respectively.
In the same order, the values of `Cc1cc(C(=O)N[C@@H](c2cc3ccccc3[nH]2)c2cc(F)ccc2O)cc(-c2ncc(N3CCN(C(=O)OC(C)(C)C)CC3)cn2)c1` [Example 35, tert-butyl (R)-4-(2-(3-(((5-fluoro-2-hydroxyphenyl)(1H-indole-2-yl)methyl)carbamoyl)-5-methylphenyl)pyrimidine-5-yl)piperazine-1-carboxylate] are less than 30 nM and more than 200 nM.
On the same counts, the results for `Cc1cc(C(=O)N[C@@H](c2cc3ccccc3[nH]2)c2cc(F)ccc2O)cc(-c2ncc(N3CCNCC3)cn2)c1` [Example 36, (R)—N-((5-fluoro-2-hydroxyphenyl)(1H-indole-2-yl)methyl)-3-methyl-5-(5-(piperazine-1-yl)pyrimidine-2-yl)benzamide] are less than 30 nM and less than 30 nM.
In the same order, the values of `Cc1cc(C(=O)N[C@@H](c2cc3ccccc3[nH]2)c2cc(F)ccc2O)cc(-c2ncc(N3CCN(C)CC3)cn2)c1` [Example 37, (R)—N-((5-fluoro-2-hydroxyphenyl)(1H-indole-2-yl)methyl)-3-methyl-5-(5-(4-methylpiperazine-1-yl)pyrimidine-2-yl)benzamide] are less than 30 nM and 30 to 200 nM.
For the compound `CCCC1CCN(c2cnc(-c3cc(C)cc(C(=O)N[C@@H](c4cc5ccccc5[nH]4)c4cc(F)ccc4O)c3)nc2)CC1` [Example 38, N—[(R)-(5-fluoro-2-hydroxy-phenyl)-(1H-indole-2-yl)methyl]-3-methyl-5-[5-(4-propyl-1-piperidyl)pyrimidine-2-yl]benzamide], the GI50 in assay [1] and in assay [2] was more than 200 nM in each case.
As to `Cc1cc(C(=O)N[C@@H](c2cc3ccccc3[nH]2)c2cc(F)ccc2O)cc(-c2ncc(N3CCC(N(C)C)CC3)cn2)c1` [Example 39, 3-[5-[4-(dimethylamino)-1-piperidyl]pyrimidine-2-yl]-N—[(R)-(5-fluoro-2-hydroxy-phenyl)-(1H-indole-2-yl)methyl]-5-methyl-benzamide], the GI50 in assay [1] and in assay [2] was less than 30 nM each time.
On to `Cc1cc(C(=O)N[C@@H](c2cc3ccccc3[nH]2)c2cc(F)ccc2O)cc(-c2ncc(N3CCCCC3)cn2)c1` [Example 40, N—[(R)-(5-fluoro-2-hydroxy-phenyl)-(1H-indole-2-yl)methyl]-3-methyl-5-[5-(1-piperidyl)pyrimidine-2-yl]benzamide], for which the GI50 was 30 to 200 nM in assay [1] and less than 30 nM in assay [2].
In the same order, the values of `Cc1cc(C(=O)N[C@@H](c2cc3ccccc3[nH]2)c2cc(F)ccc2O)cc(-c2ncc(N3CCN(C4CCN(C)CC4)CC3)cn2)c1` [Example 41, N—[(R)-(5-fluoro-2-hydroxy-phenyl)-(1H-indole-2-yl)methyl]-3-methyl-5-[5-[4-(1-methyl-4-piperidyl)piperazine-1-yl]pyrimidine-2-yl]benzamide] are less than 30 nM and less than 30 nM.
In the same order, the values of `Cc1cc(C(=O)N[C@@H](c2cc3ccccc3[nH]2)c2cc(F)ccc2O)cc(-c2ccc(CN3CCC(N(C)C)CC3)cn2)c1` [Example 42] are 30 to 200 nM and less than 30 nM.
In the same order, the values of `Cc1cc(C(=O)N[C@@H](c2cc3ccccc3[nH]2)c2cc(F)ccc2O)cc(-c2ncc(N3CC[C@@H](N)C3)cn2)c1` [Example 44, 3-[5-[(3R)-3-aminopyrrolidine-1-yl]pyrimidine-2-yl]-N—[(R)-(5-fluoro-2-hydroxy-phenyl)-(1H-indole-2-yl)methyl]-5-methyl-benzamide] are less than 30 nM and less than 30 nM.
With `CCN(CC)C1CCN(c2cnc(-c3cc(C)cc(C(=O)N[C@@H](c4cc5ccccc5[nH]4)c4cc(F)ccc4O)c3)nc2)CC1` [Example 45, (R)-3-(5-(4-(diethylamino)piperidine-1-yl)pyrimidine-2-yl)-N-((5-fluoro-2-hydroxyphenyl)(1H-indole-2-yl)methyl)-5-methylbenzamide], the GI50 in assay [1] and in assay [2] was less than 30 nM in each case.
With “(R)-3-(6-((4-(dimethylamino)piperidine-1-yl)methyl)pyridine-3-yl)-N-((5-fluoro-2-hydroxyphenyl)(1H-indole-2-yl))methyl)-5-methylbenzamide [Example 43]”, the GI50 in assay [1] is 30 to 200 nM; in assay [2], less than 30 nM.
